Source: patent US20250129101A1, “Compound, Pharmaceutical Composition Comprising the Same and Method for Treating Cancer Using the Same” (NATIONAL TSING HUA UNIVERSITY, priority 2023, published 2025)
pIC50: −log10 of the molar value.

How the values were obtained:
[1] = test system: HeLa cells expressing H2B-mCherry and eGFP-tubulin; test: Live-cell imaging of intracellular microtubule distribution; assay type: cell-based
Experimental: For the microtubule distribution analysis, HeLa cell line stably expressing H2B-mCherry and eGFP-tubulin (a kind gift from Anthony A. Hyman, Max-Planck-Institute for Molecular Cell Biology and Genetics, Dresden, Germany) were treated with KIF2C inhibitors (10 μM DHTP or 10 μM 7S9) during imaging. Live-cell imaging was conducted on a Nikon T1 inverted fluorescence microscope (Nikon) with a 60× oil objective (Nikon), a Prime camera (Photometrics), and 37° C., 5% CO2 heat stage (Live Cell Instrument). Microtubule morphological changes were imaged at 3-min intervals. Images were obtained using ImageJ software processed with Gaussian Blur to remove the noise.

KIF2C = target: T1, KIF2C (Homo sapiens, UniProt Q99661); test: In vitro microtubule depolymerization assay; assay type: biochemical; settings: 50 μM 7S9, recombinant KIF2C and ATP, 30 min
T1 construct: KIF2C (216-598 a.a.); 6xHis (C); made in house; host or cells: E. coli BL21 (DE3), pET-28a
Experimental: Additional purified KIF2C (0.5 ng/μl), ATP (0.75 mM), and 7S9 (50 μM) were included in a typical 10 μL reaction, as indicated, loaded onto a p-Slide (Ibidi, 81506) and incubated at 37° C. for 30 min. Images were acquired using the Leica DMI6000 microscope with an HCX PL FL 20×/0.4 and Andor Neo sCMOS camera, which were all processed by MetaMorph software (Molecular Devices, LLC. San Jose, CA, USA).

MDA-MB-231 cells = test: Cell validation: cytotoxicity in MDA-MB-231 cells (CellTiter-Glo); assay type: cell-based
Summary of the method: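 MDA-MB-231 cells were seeded at 2000 cells/well and exposed to compounds for the specified number of days. Medium was then replaced with a 1:1 CellTiter-Glo reagent/serum-supplemented DMEM mix for 10 min, and viability was read as luminescence, proportional to living cell number.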

4T1 R4 cells = test: Time-lapse imaging of mitotic progression, 4T1 R4 cells; assay type: cell-based, mouse; settings: 1 μM 7S9 and 400 nM paclitaxel
Experimental: To investigate the role of KIF2C in cell cycle progression, 4T1 cells were cultured in the 4-well chamber slide with about 50% confluence. The culture medium was replaced with a CO2-independent medium (Gibco) supplemented with 10% fetal bovine serum (Biological Industries) and 1% penicillin-streptomycin (Biowest). Then, each well of the chamber slide was treated with indicated drugs, such as DMSO, KIF2C inhibitors, or chemotherapy drugs. After that, the chamber slide was maintained in the microscope stage incubator with the supplement of humidified air with 5% CO2 at 37° C. Multiple-positional time-lapse imaging was performed using an automated Leica DM16000 inverted microscope equipped with HCX PL FL 20×/0.4 and EMCCD camera (Andor Luca R, Belfast, UK). Sequential differential interference contrast (DIC) images of cells obtained at indicated intervals were further analyzed using Metamorph software (Molecular Devices).

[2] = test system: MDA-MB-231 R, MDA-MB-231 S, 4T1 S1, R4, and R8 cells; test: Cell viability of indicated cell lines, DHTP or 7S9 for 72 hr; assay type: cell-based; settings: Homo sapiens, range over MDA-MB-231 R, read-out: cytotoxicity IC50 values
Experimental: The cancer cells were cultured in a 96-well plate at a confluence of 1000-2000 cells/well with indicated drugs for specific days. When the time was up, the culture medium in the plate was aspirated and replaced with a prepared CellTiter-Glo reagent/DMEM mixture (1:1 mix of CellTiter-Glo reagent and serum-supplemented DMEM). After incubation for 10 min, the luminescence (proportional to the number of living cells) was measured with an ELISA plate reader to determine the cell viability.

4T1 R8 = test: In vivo tumor growth inhibition, 4T1 R8 syngeneic model; set-up: species or system mouse; settings: R8 tumors, BALB/c mice, 7S9 50 mg/kg with paclitaxel 15 mg/kg
Experimental: The mice were housed at the National Health Research Institute (NHRI) Animal Center in accordance with the Institutional Animal Care and Use Committee procedures and guidelines. The 4T1-derived cells, including 4T1, 4T1 R4, and 4T1 R8, used for implantation were harvested during log phase growth and resuspended in phosphate-buffered saline. Each mouse was injected s.c. in the right flank with 5×10^5 cells. After tumor size reached 60-100 mm 3 (D1), mice were divided into groups and received treatment with vehicle or different compounds alone or in combinations. Tumor size, in mm 3, was measured twice per week and calculated from Tumor volume=(w 2×1)/2, where w=width and 1=length in mm of the tumor. The values of tumor size were expressed as mean±SEM.

4T1 S1 cells = test: Colony formation assay, 4T1 S1 cells; assay type: cell-based, mouse; settings: 1 μM 7S9 with 400 nM paclitaxel
Experimental: To assess the long-term survival of breast cancer cell lines following the treatment of KIF2C knockdown or inhibition, the cells trypsinized into single-cell suspension were homogeneously seeded in 6-well cell culture plates at a density of 5000 cells per dish, supplemented with 2× complete medium (50% 4×DMEM, 20% FBS, 2% penicillin-streptomycin, ddH2O, and 2× glutaMAX™), agarose (0.6% for bottom agar layer; 0.3% for top cell layer), ddH2O, and DMEM. After incubation for 24 hr, cells were treated with indicated drugs, such as DMSO, KIF2C inhibitors, or chemotherapy drugs, and then cultured at 37° C. incubator in an atmosphere of humidified air with 5% CO2 for a further 14-30 days. When the cell colonies grew to appropriate sizes, the culture mediums were replaced with PBS for washing. After that, the plates were stained with 10% crystal violet and analyzed using Image J.

T1 sequence (Q99661 216-598): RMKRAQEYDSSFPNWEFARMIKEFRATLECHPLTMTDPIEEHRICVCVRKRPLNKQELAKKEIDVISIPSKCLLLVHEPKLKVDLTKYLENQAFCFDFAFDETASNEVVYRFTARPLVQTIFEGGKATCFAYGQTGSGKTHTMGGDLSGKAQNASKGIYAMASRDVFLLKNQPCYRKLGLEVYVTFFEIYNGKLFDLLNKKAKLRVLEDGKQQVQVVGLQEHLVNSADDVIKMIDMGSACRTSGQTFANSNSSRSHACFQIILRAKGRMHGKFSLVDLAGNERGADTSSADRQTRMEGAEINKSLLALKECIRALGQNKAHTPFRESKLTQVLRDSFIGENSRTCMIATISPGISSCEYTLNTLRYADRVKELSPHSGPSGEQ

SMILES: CCN1CCN(C(=O)COc2ccc(/C=c3\sc4n(c3=O)C(c3ccc(Cl)cc3)C(C(=O)OC(C)C)=C(C)N=4)cc2)CC1.O=C(O)/C=C\C(=O)O (centres unmarked) [7S9 (133), isopropyl (Z)-5-(4-chlorophenyl)-2-(4-(2-(4-ethylpiperazin-1-yl)-2-oxoethoxy)benzylidene)-7-methyl-3-oxo-2,3-dihydro-5H-thiazolo[3,2-a]pyrimidine-6-carboxylate maleate]
- intracellular microtubule distribution phenotype (in words) [1]: puncta formation of tubulins in the cytoplasm
- KIF2C-mediated microtubule depolymerization (in words) (KIF2C): completely blocked
- cytotoxicity on MDA-MB-231 cells (in words) (MDA-MB-231 cells; 72 hr): showed cytotoxicity
- Cell validation (IC50) (MDA-MB-231 cells; cytotoxicity in MDA-MB-231 cells): + + +
- mitotic defects, combined treatment (in words) (4T1 R4 cells): induced significant defects in mitosis
- pIC50 [2]: 5.07 to 5.31
- tumor growth inhibition, combination (4T1 R8): 66.2%
- colony formation, combined treatment (in words) (4T1 S1 cells): did not further suppress colony formation
